Laboratory results published in ChEMBL document CHEMBL1201862, “PubChem BioAssay data set” (2004).
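Values below derive from 48-hour exposures of cells grown in 96-well plates, with endpoints linearly interpolated between the two concentrations bracketing the appropriate inhibition level. Here, GI50 denotes the concentration required for 50% inhibition of growth.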 Calls of active or inactive are those of the source. No stated cut-off is given here; in the data, active = GI50 up to about 1.1 µM and inactive = higher.

Tests used:
Experiment in all cases: growth of human tumour cells (NCI), 48 h
[1] = test system: M14
[2] = test system: ACHN
[3] = test system: Malme-3M
[4] = test system: UACC-257
[5] = test system: SW-620
[6] = test system: DMS-273
[7] = test system: SK-OV-3
[8] = test system: OVCAR-3
[9] = test system: LXFL 529
[10] = test system: SF-268
[11] = test system: IGROV-1
[12] = test system: HT-29
[13] = test system: NCI-H460
[14] = test system: RPMI-8226
[15] = test system: SK-MEL-5
[16] = test system: NCI-H522
[17] = test system: U-251
[18] = test system: SK-MEL-2
[19] = test system: UO-31
[20] = test system: OVCAR-5
[21] = test system: SNB-78
[22] = test system: OVCAR-4
[23] = test system: OVCAR-8
[24] = test system: XF498
[25] = test system: K562
[26] = test system: TK-10
[27] = test system: 786-0
[28] = test system: COLO 205
[29] = test system: KM12
[30] = test system: HOP-18
[31] = test system: HCT-116
[32] = test system: HCT-15
[33] = test system: NCI-H23
[34] = test system: SK-MEL-28
[35] = test system: UACC-62
[36] = test system: SNB-19
[37] = test system: HCC 2998
[38] = test system: SN12C
[39] = test system: DLD-1
[40] = test system: A498
[41] = test system: SNB-75
[42] = test system: KM-20L2
[43] = test system: HOP-62
[44] = test system: HL-60
[45] = test system: MOLT-4
[46] = test system: DMS-114
[47] = test system: NCI-H226
[48] = test system: HOP-92
[49] = test system: CAKI-1
[50] = test system: CCRF-CEM
[51] = test system: RXF 631
[52] = test system: RXF 393
[53] = test system: A549
[54] = test system: SF-295
[55] = test system: EKVX
[56] = test system: SF-539
[57] = test system: LOX IMVI

With `O=C1C=Cc2ncccc2C1=O` the GI50 [1] was 18.1 µM (inactive), the GI50 [2] was 20.8 µM (inactive) and the GI50 [3] was 29.9 µM (inactive). For the same compound, the GI50 [4] was 20 µM (inactive), the GI50 [5] was 15.4 µM (inactive) and the GI50 [6] was 17 µM (inactive). For the same compound, the GI50 [7] was 37.9 µM (inactive), the GI50 [8] was 23.9 µM (inactive) and the GI50 [9] was 16.5 µM (inactive). The GI50 [10] was 34.4 µM (inactive), the GI50 [11] was 32.2 µM (inactive) and the GI50 [12] was 22.2 µM (inactive). The GI50 [13] was 20 µM (inactive), the GI50 [14] was 24.1 µM (inactive) and the GI50 [15] was 14.9 µM (inactive). The GI50 [16] was 15.7 µM (inactive), the GI50 [17] was 24.4 µM (inactive) and the GI50 [18] was 18.5 µM (inactive). The GI50 [19] was 30.5 µM (inactive), the GI50 [20] was > 44.2 µM (inactive) and the GI50 [21] was 31 µM (inactive). For the same compound, the GI50 [22] was 5.77 µM (inactive), the GI50 [23] was 16.3 µM (inactive) and the GI50 [24] was 24.6 µM (inactive). The GI50 [25] was 7.71 µM (inactive), the GI50 [26] was > 44.9 µM (inactive) and the GI50 [27] was 15.7 µM (inactive). For the same compound, the GI50 [28] was 18 µM (inactive), the GI50 [29] was 33.7 µM (inactive) and the GI50 [30] was > 52 µM (inactive). For the same compound, the GI50 [31] was 16.9 µM (inactive), the GI50 [32] was 18.1 µM and the GI50 [33] was 20.3 µM (inactive). For the same compound, the GI50 [34] was 24.4 µM (inactive), the GI50 [35] was 16.8 µM (inactive) and the GI50 [36] was > 78.3 µM (inactive). The GI50 [37] was > 48.1 µM (inactive), the GI50 [38] was 21.2 µM (inactive) and the GI50 [39] was 18.7 µM (inactive). The GI50 [40] was > 54 µM (inactive), the GI50 [41] was 21.3 µM (inactive) and the GI50 [42] was > 45.9 µM (inactive). The GI50 [43] was > 54.8 µM (inactive), the GI50 [44] was 5.22 µM (inactive) and the GI50 [45] was 2.45 µM (inactive). For the same compound, the GI50 [46] was 16.5 µM (inactive), the GI50 [47] was > 44.9 µM (inactive) and the GI50 [48] was 21.1 µM (inactive). For the same compound, the GI50 [49] was 21.1 µM (inactive), the GI50 [50] was 7.05 µM (inactive) and the GI50 [51] was 21.4 µM (inactive). For the same compound, the GI50 [52] was 20 µM (inactive), the GI50 [53] was 30.8 µM (inactive) and the GI50 [54] was 17.6 µM (inactive). For the same compound, the GI50 [55] was 23.5 µM (inactive), the GI50 [56] was 21.1 µM (inactive) and the GI50 [57] was 13.5 µM (inactive).
